# Values quoted from earlier work as cited in publication PMC6262012, “IMB-T130 targets 3-dehydroquinate synthase and inhibits Mycobacterium tuberculosis” (Scientific Reports, 2018).
# Tested on: M. tuberculosis
# Details: drug-resistant strains, compared with RFP and INH; cited from earlier work
smiles,measurement,value
"O=C(Nc1nc(-c2ccccn2)cs1)c1ccc(Cl)s1 [IMB-T130, 5-chloro-N-[4-(pyridin-2-yl)-1,3-thiazol-2-yl] thiophene-2-carboxamide]",MIC against drug-resistant strains,substantially lower MIC
